Data from patent publication US9695155B2, “Herbicidal substituted pyrimidinyloxy benzene compounds” (E. I. DU PONT DE NEMOURS AND COMPANY, priority 2013, dated 2017).

Legend:
large (Lg) crabgrass = experiment: Test A preemergence; format: in vivo, Digitaria sanguinalis
Procedure, shortened: (§1)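 Visual 0–100 rating (100 = complete control) taken about 10 d post-treatment relative to untreated checks. Preemergence: directed soil spray on sown loam/sand pots. Postemergence: seedlings 2–10 cm, 1–2 leaf. Non-phytotoxic solvent formulation with surfactant.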

morningglory = experiment: Test A preemergence; format: in vivo, Ipomoea spp.
Procedure, shortened: as §1

pigweed [1] = experiment: Test A preemergence; format: in vivo, Amaranthus retroflexus
Procedure, shortened: as §1

velvetleaf [2] = experiment: Test A preemergence; format: in vivo, Abutilon theophrasti
Procedure, shortened: as §1

wheat = experiment: Test A postemergence; format: in vivo, Triticum aestivum; details: 0 to 100 scale where 0 is no effect and 100 is complete control
Procedure, shortened: as §1

corn = experiment: Test A postemergence; format: in vivo, Zea mays
Procedure, shortened: as §1

giant foxtail = experiment: Test C preemergence; format: in vivo, Setaria faberii; details: for Foxtail, Giant plant response rating: preemergence, scale 0 (no effect) to 100 (complete control)
Procedure, shortened: (§2)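 Sown in loam/sand → sprayed pre-emergence; or grown to 1–4 leaves in peat mix → sprayed post-emergence. Same solvent/surfactant formulation both ways. Greenhouse 13–15 d. Score 0–100 visual.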

johnsongrass = experiment: Test C preemergence; format: in vivo, Sorghum halepense; details: for Johnsongrass plant response rating: preemergence, scale 0 (no effect) to 100 (complete control)
Procedure, shortened: as §2

ragweed [3] = experiment: Test C preemergence; format: in vivo, Ambrosia elatior; details: preemergence, scale 0 (no effect) to 100 (complete control)
Procedure, shortened: as §2

soybean = experiment: Test C preemergence; format: in vivo, Glycine max; details: preemergence, scale 0 (no effect) to 100 (complete control)
Procedure, shortened: as §2

waterhemp = experiment: Test C preemergence; format: in vivo, Amaranthus rudis; details: for Waterhemp plant response rating: preemergence, scale 0 (no effect) to 100 (complete control)
Procedure, shortened: as §2

galium = experiment: Test C postemergence; format: in vivo, Galium aparine; details: for Plant response rating (0 to 100), Galium: postemergence; for Plant response rating, Galium: Postemergence, scale 0 to 100 (0 no effect, 100 complete control)
Procedure, shortened: as §2

pigweed [4] = experiment: Test C postemergence; format: in vivo, Amaranthus retroflexus; details: for Plant response rating (0 to 100), Pigweed: postemergence; for Plant response rating, Pigweed: Postemergence, scale 0 to 100 (0 no effect, 100 complete control)
Procedure, shortened: as §2

ragweed [5] = experiment: Test C postemergence; format: in vivo, Ambrosia elatior; details: for Plant response rating (0 to 100), Ragweed: postemergence; for Plant response rating, Ragweed: Postemergence, scale 0 to 100 (0 no effect, 100 complete control)
Procedure, shortened: as §2

oilseed rape = experiment: Test C postemergence; format: in vivo, Brassica napus; details: for Plant response rating (0 to 100), Oilseed Rape: postemergence; for Plant response rating, Oilseed Rape: Postemergence, scale 0 to 100 (0 no effect, 100 complete control)
Procedure, shortened: as §2

velvetleaf [6] = experiment: Test C postemergence; format: in vivo, Abutilon theophrasti; details: for Plant response rating (0 to 100), Velvetleaf: postemergence; for Plant response rating, Velvetleaf: Postemergence, scale 0 to 100 (0 no effect, 100 complete control)
Procedure, shortened: as §2

[7] = 125 g ai/ha, 0 to 100 scale where 0 is no effect and 100 is complete control
[8] = 500 g ai/ha, 0 to 100 scale, 0 no effect, 100 complete control, approx. 10 days
[9] = Preemergence, 31 g ai/ha, scale 0 to 100, 0 no effect, 100 complete control

## N#Cc1cccc(Oc2ncc(F)cn2)c1-n1cc(Cl)cn1 [Compound 73]
Large (Lg) crabgrass; [7]
  Plant response rating, Crabgrass, Large: 100
Large (Lg) crabgrass; [8]
  Crabgrass, Large plant response rating: 100
morningglory; [7]
  Plant response rating, Morningglory: 90
morningglory; [8]
  Morningglory plant response rating: 100
Pigweed [1]; [7]
  Plant response rating, Pigweed: 100
Pigweed [1]; [8]
  Pigweed plant response rating: 100
Velvetleaf [2]; [7]
  Plant response rating, Velvetleaf: 100
Velvetleaf [2]; [8]
  Velvetleaf plant response rating: 100
wheat; 125 g ai/ha
  Plant response rating, Wheat: 20
wheat; 500 g ai/ha
  Plant response rating, Wheat: 50
corn; [7]
  Plant response rating, Corn: 40
corn; 500 g ai/ha, 0 to 100 scale, 0 no effect, 100 complete control
  Plant response rating, Corn: 80
Giant foxtail; 62 g ai/ha
  Foxtail, Giant plant response rating: 100
Giant foxtail; 125 g ai/ha
  Foxtail, Giant plant response rating: 100
Giant foxtail; 250 g ai/ha
  Foxtail, Giant plant response rating: 100
Giant foxtail; [9]
  Plant response rating, Foxtail, Giant: 85
johnsongrass; 62 g ai/ha
  Johnsongrass plant response rating: 35
johnsongrass; 125 g ai/ha
  Johnsongrass plant response rating: 75
johnsongrass; 250 g ai/ha
  Johnsongrass plant response rating: 98
johnsongrass; [9]
  Plant response rating, Johnsongrass: 10
Ragweed [3]; 62 g ai/ha
  Ragweed plant response rating: 75
Ragweed [3]; 125 g ai/ha
  Ragweed plant response rating: 85
Ragweed [3]; 250 g ai/ha
  Ragweed plant response rating: 85
soybean; 62 g ai/ha
  Soybean plant response rating: 60
soybean; 125 g ai/ha
  Soybean plant response rating: 75
soybean; 250 g ai/ha
  Soybean plant response rating: 90
waterhemp; 62 g ai/ha
  Waterhemp plant response rating: 100
waterhemp; 125 g ai/ha
  Waterhemp plant response rating: 100
waterhemp; 250 g ai/ha
  Waterhemp plant response rating: 100
waterhemp; [9]
  Plant response rating, Waterhemp: 100
galium; 125 g ai/ha
  Plant response rating (0 to 100), Galium: 70
galium; 250 g ai/ha
  Plant response rating (0 to 100), Galium: 70
galium; 31 g ai/ha, 13 to 15 days
  Plant response rating, Galium: 40
galium; 62 g ai/ha
  Plant response rating, Galium: 55
Pigweed [4]; 125 g ai/ha
  Plant response rating (0 to 100), Pigweed: 80
Pigweed [4]; 250 g ai/ha
  Plant response rating (0 to 100), Pigweed: 90
Pigweed [4]; 31 g ai/ha, 13 to 15 days
  Plant response rating, Pigweed: 45
Pigweed [4]; 62 g ai/ha
  Plant response rating, Pigweed: 70
Ragweed [5]; 125 g ai/ha
  Plant response rating (0 to 100), Ragweed: 50
Ragweed [5]; 250 g ai/ha
  Plant response rating (0 to 100), Ragweed: 65
Ragweed [5]; 31 g ai/ha, 13 to 15 days
  Plant response rating, Ragweed: 30
Ragweed [5]; 62 g ai/ha
  Plant response rating, Ragweed: 35
Oilseed rape; 125 g ai/ha
  Plant response rating (0 to 100), Oilseed Rape: 60
Oilseed rape; 250 g ai/ha
  Plant response rating (0 to 100), Oilseed Rape: 80
Oilseed rape; 31 g ai/ha, 13 to 15 days
  Plant response rating, Oilseed Rape: 10
Oilseed rape; 62 g ai/ha
  Plant response rating, Oilseed Rape: 30
Velvetleaf [6]; 125 g ai/ha
  Plant response rating (0 to 100), Velvetleaf: 50
Velvetleaf [6]; 250 g ai/ha
  Plant response rating (0 to 100), Velvetleaf: 70
Velvetleaf [6]; 31 g ai/ha, 13 to 15 days
  Plant response rating, Velvetleaf: 30
Velvetleaf [6]; 62 g ai/ha
  Plant response rating, Velvetleaf: 30
